Laboratory results taken from ChEMBL document CHEMBL2203166, “Small Molecule Ligands For Active Targeting Of TrkC-expressing Tumor Cells” (ACS Med Chem Lett, 2012).
Calls of active or inactive are those of the source. The rule behind the calls is not given here.

Assays:
NIH3T3 [1] = experiment: Cytotoxicity against mouse NIH/3T3 cells after 56 to 60 hrs by MTT assay; format: cell-based; conditions: for Activity: mouse, nih3t3; for IC50: Mus musculus, NIH3T3
NIH3T3 [2] = experiment: Cytotoxicity against mouse NIH/3T3 cells expressing TrkC receptor after 56 to 60 hrs by MTT assay; format: functional, cell-based
[3] = Cytotoxicity against CHO cells; format: cell-based, Cricetulus griseus; conditions: chinese hamster, read-out: ED50 (the source's name)
MCF7 = experiment: Cytotoxicity against human MCF7 cells; format: functional, cell-based
NIH3T3 [4] = experiment: Cytotoxicity against mouse NIH/3T3 cells expressing TrkC receptor after 56 to 60 hrs by MTT assay in presence of 3.5 nM of growth factor NT3; format: functional, cell-based
NIH3T3 [5] = experiment: Cytotoxicity against mouse NIH/3T3 cells expressing TrkC receptor after 56 to 60 hrs by MTT assay in presence of 20 uM of IY-IY-TEG; format: functional, cell-based
NIH3T3 [6] = experiment: Cytotoxicity against mouse NIH/3T3 cells after 56 to 60 hrs by MTT assay in presence of 20 uM of IY-IY-TEG; format: cell-based
NIH3T3 [7] = experiment: Cytotoxicity against mouse NIH/3T3 cells after 56 to 60 hrs by MTT assay in presence of 3.5 nM of growth factor NT3; format: cell-based
4T1 = experiment: Cytotoxicity against mouse 4T1 cells expressing TrkC receptor after 30 hrs by Calcein-AM assay; format: functional, cell-based; conditions: 4T1, 30 h
[8] = Mus musculus, NIH3T3, read-out: IC50

CC[C@H](C)[C@H](N)c1cn([C@@H](Cc2ccc(O)cc2)C(=O)N2CCN(c3nc(NCCOCCOCCOCc4cn(CCOCCOCCn5cnc6c(=S)nc[nH]c65)nn4)nc(N4CCN(C(=O)[C@H](Cc5ccc(O)cc5)n5cc([C@@H](N)[C@@H](C)CC)nn5)CC4)n3)CC2)nn1
Activity (NIH3T3 [1]): Non-toxic
IC50 (NIH3T3 [2]; nih3t3): Active

Sc1ncnc2nc[nH]c12 [MERCAPTOPURINE ANHYDROUS]
CC50 [3]: 50 µM
IC50 (MCF7): 2790 nM

C#CCOCCOCCOCCNc1nc(N2CCN(C(=O)[C@H](Cc3ccc(O)cc3)n3cc([C@@H](N)[C@@H](C)CC)nn3)CC2)nc(N2CCN(C(=O)[C@H](Cc3ccc(O)cc3)n3cc([C@@H](N)[C@@H](C)CC)nn3)CC2)n1
Activity (NIH3T3 [1]): Non-toxic
IC50 (NIH3T3 [2]; nih3t3): Not Active

CN(C)c1ccc2c(-c3ccccc3)c3ccc(N(C)C)cc3[o+]c2c1 [ROSAMINE]
IC50 (MCF7): 390 nM

S=c1nc[nH]c2c1ncn2CCOCCOCCn1cc(COCCOCCOCCNc2nc(N3CCOCC3)nc(N3CCOCC3)n2)nn1
Activity (NIH3T3 [1]): Non-toxic
IC50 (NIH3T3 [2]; nih3t3): Not Active

CC[C@H](C)[C@@H](C(=O)N1CCN(c2nc(NCCOCCOCCOCc3cn(CC#Cc4ccc(-c5c6ccc(=[N+]7CCCCC7)cc-6oc6cc(N7CCCCC7)ccc56)cc4)nn3)nc(N3CCN(C(=O)[C@H]([C@@H](C)CC)n4cc([C@@H](N)Cc5ccc(O)cc5)nn4)CC3)n2)CC1)n1cc([C@@H](N)Cc2ccc(O)cc2)nn1
Activity (NIH3T3 [4]): Active
Activity (NIH3T3 [5]): Active
IC50 (NIH3T3 [1]): 25.8 µM
Activity (NIH3T3 [6]): Toxic
IC50 (NIH3T3 [2]; [8]): 25.8 µM
Activity (NIH3T3 [7]): Toxic

CC[C@H](C)[C@H](N)c1cn([C@@H](Cc2ccc(O)cc2)C(=O)N2CCN(c3nc(NCCOCCOCCOCc4cn(CC#Cc5ccc(-c6c7ccc(=[N+]8CCCCC8)cc-7oc7cc(N8CCCCC8)ccc67)cc5)nn4)nc(N4CCN(C(=O)[C@H](Cc5ccc(O)cc5)n5cc([C@@H](N)[C@@H](C)CC)nn5)CC4)n3)CC2)nn1
Activity (NIH3T3 [4]): inactive
Activity (NIH3T3 [5]): inactive
IC50 (4T1): 19.9 µM
IC50 (NIH3T3 [1]): 27.6 µM
Activity (NIH3T3 [6]): Toxic
IC50 (NIH3T3 [2]; [8]): 15.8 µM
Activity (NIH3T3 [7]): Toxic

CCCCn1cnc2c(=S)nc[nH]c21
CC50 [3]: 400 µM

CCn1cnc2c(=S)nc[nH]c21
CC50 [3]: 600 µM
